# Assay results as given in patent US20230115176A1 (Ra Pharmaceuticals, Inc., priority 2019, published 2023).
# How the values were obtained:
# [1] = target: human C5 complement protein (Homo sapiens, UniProt P01031); experiment: Surface plasmon resonance (SPR), immobilized human C5, 37° C. (Example 12, Table 21); type: binding; conditions: where a range of compound concentrations were analyzed, the lowest value obtained
# Excerpt: (§1) Compound CU0136 is a racemic mixture of Compound CU0186 and CU0187. Numbers in parenthesis following compound numbers indicate alternate enantiomers (as distinguished by retention time during chromatographical separation).
# [2] = target: T1, Human C5 (Homo sapiens, UniProt P01031); experiment: Red blood cell (RBC) hemolysis assay, luminescent (Example 13, Table 22); type: cell-based; conditions: sheep EA cells, […] C5-depleted human serum, 0.5 nM human C5, 1 hour 37° C., luminescence; also: 1.5% C5-depleted human serum
# T1 construct: purchased Complement Technology
# T1 sequence (P01031 19-1676): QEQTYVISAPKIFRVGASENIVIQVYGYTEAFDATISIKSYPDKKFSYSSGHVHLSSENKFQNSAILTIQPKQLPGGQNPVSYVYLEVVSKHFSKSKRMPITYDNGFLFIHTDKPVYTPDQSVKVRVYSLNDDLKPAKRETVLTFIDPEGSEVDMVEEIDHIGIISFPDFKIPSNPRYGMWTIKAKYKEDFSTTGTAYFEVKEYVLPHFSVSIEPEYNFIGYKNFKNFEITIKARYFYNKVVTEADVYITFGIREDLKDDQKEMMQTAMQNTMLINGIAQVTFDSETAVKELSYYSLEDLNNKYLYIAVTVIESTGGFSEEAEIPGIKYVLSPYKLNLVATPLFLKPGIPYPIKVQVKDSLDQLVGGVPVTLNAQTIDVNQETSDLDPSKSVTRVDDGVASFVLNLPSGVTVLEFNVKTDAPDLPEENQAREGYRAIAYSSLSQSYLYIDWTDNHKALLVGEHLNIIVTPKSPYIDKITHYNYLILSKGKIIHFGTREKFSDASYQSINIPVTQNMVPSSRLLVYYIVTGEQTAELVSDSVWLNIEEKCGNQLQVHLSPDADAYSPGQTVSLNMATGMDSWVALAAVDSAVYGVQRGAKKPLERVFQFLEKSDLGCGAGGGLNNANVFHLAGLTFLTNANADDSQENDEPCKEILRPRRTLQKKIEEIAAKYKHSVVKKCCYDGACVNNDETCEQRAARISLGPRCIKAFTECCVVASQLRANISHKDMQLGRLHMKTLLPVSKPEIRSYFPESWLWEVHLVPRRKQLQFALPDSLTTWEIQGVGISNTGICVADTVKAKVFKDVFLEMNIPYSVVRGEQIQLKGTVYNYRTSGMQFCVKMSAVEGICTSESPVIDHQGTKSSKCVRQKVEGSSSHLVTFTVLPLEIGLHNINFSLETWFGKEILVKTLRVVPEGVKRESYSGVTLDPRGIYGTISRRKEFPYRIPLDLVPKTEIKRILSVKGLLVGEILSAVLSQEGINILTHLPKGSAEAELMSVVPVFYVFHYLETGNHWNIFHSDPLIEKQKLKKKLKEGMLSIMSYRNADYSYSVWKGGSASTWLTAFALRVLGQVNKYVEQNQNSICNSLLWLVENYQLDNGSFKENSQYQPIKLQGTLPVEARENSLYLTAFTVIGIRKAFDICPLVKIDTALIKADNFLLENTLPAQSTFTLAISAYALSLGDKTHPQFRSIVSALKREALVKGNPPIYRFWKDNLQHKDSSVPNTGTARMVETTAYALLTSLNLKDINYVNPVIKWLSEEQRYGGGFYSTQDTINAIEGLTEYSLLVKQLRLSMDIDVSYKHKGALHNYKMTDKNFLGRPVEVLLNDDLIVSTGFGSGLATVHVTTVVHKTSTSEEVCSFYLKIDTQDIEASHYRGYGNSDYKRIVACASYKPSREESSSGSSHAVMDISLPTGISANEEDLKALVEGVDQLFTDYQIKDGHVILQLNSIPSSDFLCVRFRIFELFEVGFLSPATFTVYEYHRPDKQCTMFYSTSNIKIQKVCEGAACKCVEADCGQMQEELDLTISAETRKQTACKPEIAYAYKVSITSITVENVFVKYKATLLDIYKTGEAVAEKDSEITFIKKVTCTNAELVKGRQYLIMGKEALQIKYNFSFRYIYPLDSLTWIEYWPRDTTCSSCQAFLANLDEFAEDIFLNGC
# Excerpt: as §1
# [3] = target: T1, Human C5; experiment: Surface plasmon resonance (SPR), compounds on immobilized human C5 (Example 2, Table 5); type: binding; conditions: lowest value where a range of compound concentrations were analyzed
# [4] = target: purified human C5 (Homo sapiens, UniProt P01031); experiment: Red blood cell hemolysis assay, optical, absorbance 412 nm (Example 3, Table 6); type: cell-based; conditions: antibody-sensitized sheep erythrocytes, 1.5% human C5 depleted sera, 0.5 nM human C5; average where replicates
# Chain of purified human C5 (P01031 19-1676): as above
# Experimental: Experiments were carried out using a red blood cell (RBC) hemolysis assay to assess compound inhibition of RBC lysis. […] The assay was carried out using 1.5% human C5 depleted sera and 0.5 nM purified human C5.
# GVB++ buffer (Complement Technology, Tyler, Tex.) was heated at 37° C. for a minimum of 20 minutes. The human C5 depleted sera and purified human C5 were rapidly thawed at 37° C. and then stored on ice or wet ice, respectively. The compound stock (10 mM, DMSO) was serially diluted in 100% DMSO to obtain ten 6-fold dilutions before addition of GVB++. Sera dilution was prepared by adding 5 mL of GVB++ to a 15 mL conical tube, removing 600 μL of the GVB++ and adding 600 μL of the 100% sera. The tube was mixed by inverting three times. A volume of 25 μL of the diluted sera was added to each well so that the final concentration of sera in the well was 1.5%. C5 dilution was prepared by adding 5 mL of GVB++ to a 15 mL conical tube, removing 4 μL of the GVB++ and adding 4 μL of the C5 stock. The tube was mixed by inverting three times. A volume of 25 μL was added to each well so that the final amount of C5 was 0.5 nM in each well. The antibody-sensitized sheep erythrocytes (EAs) were centrifuged at 1,000× gravity at 22° C. for 3 minutes. The supernatant was pipetted off without disrupting the pellet. The pellet was then resuspended in GVB++ with the same volume removed. Resuspended EAs were mixed by gently inverting the tube.
# Five controls were run on each plate: (1) EAs only=100 μL EAs+50 μL GVB++ with 4% DMSO+50 μL GVB++; (2) EA+Sera=100 μL EAs+50 μL GVB++ with 4% DMSO+25 μL Sera dilution+25 μL GVB++; (3) EA+C5=100 μL EAs+50 μL GVB++ with 4% DMSO+25 μL C5 dilution+25 μL GVB++; (4) EA+Sera+C5=100 μL EAs+50 μL GVB++ with 4% DMSO+25 μL Sera dilution+25 μL C5; (5) GVB++ Only=200 μL GVB++. Other wells included: GVB++ with 4% DMSO=20 μL DMSO+480 μL GVB++. All samples were analyzed in duplicate. The compound dose response curve was generated using samples prepared with 100 μL EA+50 μL compound dilution+25 μL C5 dilution+25 μL sera dilution.
# Test plates were prepared by adding 100 μL of EAs, 50 μL of compound dilution, 25 μL of sera dilution, and 25 μL of C5 dilution to individual wells of a 96-well tissue culture-treated clear microtitre plate (USA Scientific, Ocala, Fla.) and resuspending by pipetting up and down three times. The samples were incubated at 37° C. for one hour. At the completion of the incubation, the plates were centrifuged at 1,000× gravity for 3 minutes. 100 μl of supernatant were transferred to a new plate and the absorbance was read at 412 nm. Data was fit with a log-logit formula producing a dose-response curve and IC50.
# “IC50” refers to the half maximal inhibitory concentration, where the value is the concentration of the inhibitor needed to reduce red blood cell hemolysis by half. Where replicate analysis was conducted, average IC50 values are provided along with standard deviation (SD) values.
# Chain of human C5 complement protein (P01031 19-1676): as above
Kd [1] [nM],Kd [3] [nM],Compound,IC50 [2] [nM],IC50 [4] [nM]
15.5,,CCCCCOc1cc(N2CCCN(Cc3ccnc4c3ccn4CC(=O)N3CCOC(CCO)C3)C2=O)ccc1OC (centres unmarked) [CU0046],38.9,
35.5,,CCCCCOc1cc(N2CCCN(Cc3ccnc4c3ccn4CC(=O)N3CCOCC3)C2=O)ccc1C1CC1 [CU0044],87.7,
188,,CCCCCOc1cc(N2CCN(Cc3cccnc3OC)C2=O)ccc1OC [CU0017],106,
6.5,,"CCCCCOc1cc(N2CCCN(Cc3ccnc4c3ccn4C3CCN(C)C3=O)C2=O)ccc1OC (single isomer, unassigned) [CU0039(2)]",30.1,
2.4,,CCCCCOc1cc(N2CCCN(Cc3ccc(CC(=O)N4CCNC(=O)C4)cc3OC)C2=O)ccc1OC [CU0101],,
6,,CCCCCOc1cc(N2CCCN(Cc3cccc4c3ccn4CC(=O)N3CCOC(COC)C3)C2=O)ccc1OC (centres unmarked) [CU0031],15.7,
13,,CCCCCOc1cc(N2CCCN(Cc3ccnc4c3ccn4CC(=O)N3CCN(C)C(=O)C3)C2=O)ccc1C1CC1 [CU0061],52.3,
6.4,,CCCCCOc1cc(N2CCCN(Cc3ccc(CCN4CCOCC4)cc3OC)C2=O)ccc1OC [CU0124],26,
23.8,,CCCCCOc1cc(N2CCCN(Cc3cc(-c4cnn(C5COC5)c4)ccc3OC)C2=O)ccc1OC [CU0129],61.5,
1.5,,CCCCCOc1cc(N2CCCN(Cc3cccc4c3ccn4CC3(O)CCNCC3)C2=O)ccc1OC [CU0021],14.5,
9.5,,CCCCCOc1cc(N2CCCN(Cc3cccc(-c4cnn(C5CCN(C)CC5)c4)c3F)C2=O)ccc1OC [CU0127],30.2,
27.5,,CCCCCOc1cc(N2CCCN(Cc3cccnc3OC)C2=O)ccc1OC [CU0018],40.6,
18.5,,CCCCCOc1cc(N2CCCN(Cc3ccnc4c3ccn4CC(=O)N3CCOC(COC)C3)C2=O)ccc1OC (centres unmarked) [CU0048],57.3,
326,,CCCCCOc1cc(N2CCCN(Cc3cccc(F)c3Cl)C2=O)ccc1OC [CU0012],128,
1.8,,CCCCCOc1cc(N2CCCN(Cc3cccc4c3ccn4CC(=O)N3CCOC(C)(C)C3)C2=O)ccc1OC [CU0030],26.9,
26,,CCCCCOc1cc(N2CCCN([C@@H](C)c3ccnc4c3ccn4CC(=O)N3CCOCC3)C2=O)ccc1OC [CU0045],32.8,
27.5,,CCCCCOc1cc(N2CCCN(Cc3ccc(CN(CC)CC)cc3OC)C2=O)ccc1OC [CU0121],38.9,
17.5,,CCCCCOc1cc(N2CCCN(Cc3ccnc4c3ccn4CC(=O)N3CC(=O)N(C)C(C)C3)C2=O)ccc1OC (centres unmarked) [CU0062],33.4,
21,,CCCCCOc1cc(N2CCCN(Cc3ccnc4c3ccn4CC(=O)N3CCOC(C)(COC)C3)C2=O)ccc1OC (centres unmarked) [CU0049],44.7,
2.1,,CCCCCOc1cc(N2CCCN(Cc3ccc(CC(=O)N4CCCOCC4)cc3OC)C2=O)ccc1OC [CU0100],21,
,2000,COc1ccc(NC(=O)N[C@@H](COC(C)=O)c2ccccc2)cc1OCCCC(C)C [SM0062],,5650
47.5,,CCCCCOc1cc(N2CCCN(Cc3ccnc4[nH]ccc34)C2=O)ccc1OC [CU0032],51.8,
,4800,"CC(C)CCCOc1cccc(NC(=O)N[C@@H](CO)c2ccccc2)c1 [SM0070, 1-[(1R)-2-hydroxy-1-phenyl-ethyl]-3-(3-isohexyloxyphenyl)urea]",,8600

Kd [1] [nM],Kd [3] [nM],Compound,IC50 [2] [nM],IC50 [4] [nM]
25,,CCCCCOc1cc(N2CCCN(Cc3ccnc4c3ccn4CC(=O)N(C)C)C2=O)ccc1C1CC1 [CU0036],121,
28,,"CCCCCOc1cc(N2CCCN(Cc3ccnc4c3ccn4C3CCN(C)C3=O)C2=O)ccc1OC (single isomer, unassigned) [CU0039(1)]",30,
,140,COc1ccc(NC(=O)Nc2ccccc2O)cc1OCCCC(C)C [SM0069],,7720
5,,CCCCCOc1cc(N2CCCN(Cc3cccc4c3ccn4Cc3nncn3C)C2=O)ccc1OC [CU0024],12.9,
,3600,COc1ccc(NC(=O)NCC(O)c2ccccn2)cc1OCCCC(C)C (centres unmarked) [SM0078],,12600
,107,COc1ccc(NC(=O)N[C@@H](CO)c2ccccc2)cc1CCCCC(C)C [SM0010],,226
,3200,COc1ccc(NC(=O)N[C@@H](CO)c2ccccc2)cc1C(F)(F)F [SM0073],,9260
,1300,CC(C)CCCOc1cc(NC(=O)N[C@@H](CO)c2ccccc2)ccc1F [SM0075],,11500
,63,COc1ccc(NC(=O)N[C@@H](CO)c2ccccc2)cc1C#CCCC(C)C [SM0014],,335
,620,COc1ccc(NC(=O)N[C@@H](CO)c2ccccc2)cc1OCCCCC(F)(F)F [SM0025],,675
,92,COc1ccc(NC(=O)N[C@@H](CO)c2ccc(F)cc2)cc1OCCCC(C)C [SM0023],,608
,210,COc1ccc(NC(=O)NCc2ccsc2)cc1OCCCC(C)C [SM0039],,1490
,320,COc1ccc(NC(=O)NC(CO)c2ccc(Cl)cc2)cc1OCCCC(C)C (centres unmarked),,3390
,410,COc1ccc(NC(=O)N[C@@H](CO)c2ccccc2)cc1OCCCCCC(C)C [SM0033],,1100
,144,COc1ccc(NC(=O)NCc2cnccn2)cc1OCCCC(C)C [SM0080],,13000
,37,COc1ccc(NC(=O)NCc2ccccc2O)cc1CCCCC(C)C [SM0005],,65.8
,130,COc1ccc(NC(=O)NC(CO)c2ccccc2F)cc1OCCCC(C)C (centres unmarked) [SM0024],,614
,500,COc1ccc(NC(=O)NCc2ccccc2F)cc1OCCCC(C)C [SM0058],,4090
,171,COc1ccc(NC(=O)N2CCC[C@H]2c2ccccc2)cc1OCCCC(C)C [SM0027],,697
,290,COc1ccc(NC(=O)NCc2cccc(O)c2)cc1OCCCC(C)C [SM0016],,378
,17,COc1ccc(NC(=O)NCc2ccnc3[nH]ccc23)cc1OCCCC(C)C [SM0013],,327
,14,COc1ccc(NC(=O)NC(CO)c2ccccc2OC)cc1OCCCC(C)C (centres unmarked) [SM0003],,26.8
,39,COc1ccc(NC(=O)N[C@@H](CO)c2ccccc2)cc1OCCC1CCCC1 [SM0019],,450

Kd [1] [nM],Kd [3] [nM],Compound,IC50 [2] [nM],IC50 [4] [nM]
,196,COc1ccc(NC(=O)NCc2ccc(O)c(O)c2)cc1OCCCC(C)C [SM0015],,342
,628,COc1ccc(NC(=O)NC(C)c2cccnc2)cc1OCCCC(C)C (centres unmarked) [SM0037],,1320
,84,COc1ccc(NC(=O)NCc2ccc3[nH]ccc3c2)cc1OCCCC(C)C [SM0022],,581
,2700,COc1ccc(NC(=O)NCc2ccncc2)cc1OCCCC(C)C [SM0031],,983
,1600,COc1ccc(NC(=O)NCc2ccc3nccn3c2)cc1OCCCC(C)C [SM0065],,6670
,25,COc1ccc(NC(=O)NC(CO)c2ccco2)cc1OCCCC(C)C (centres unmarked) [SM0032],,1040
,45,COc1ccc([C@H](CO)NC(=O)Nc2ccc(OC)c(OCCCC(C)C)c2)cc1 [SM0008],,176
,6610,COc1ccc(NC(=O)NC(CCO)c2ccccc2)cc1OCCCC(C)C (centres unmarked) [SM0064],,6450
,7200,COc1ccc(NC(=O)NCc2ccc(S(N)(=O)=O)cc2)cc1OCCCC(C)C [SM0048],,2540
,9400,COc1ccc(NC(=O)NCc2cccc(C#N)c2)cc1OCCCC(C)C [SM0076],,11700
,368,COc1ccc(NC(=O)N(C)Cc2ccccc2)cc1OCCCC(C)C [SM0021],,533
,190,COc1cc(CNC(=O)Nc2ccc(OC)c(OCCCC(C)C)c2)ccc1O [SM0030],,936
,9900,CCCCCc1cccc(NC(=O)N[C@@H](CO)c2ccccc2)c1 [SM0087],,16700
,239,COc1ccc(NC(=O)NC(CO)c2ccccc2F)cc1CCCCC(C)C (centres unmarked) [SM0029],,901
,830,COc1cccc(CNC(=O)Nc2ccc(OC)c(OCCCC(C)C)c2)c1 [SM0047],,2270
,1400,C=CCCOc1cc(NC(=O)N[C@@H](CO)c2ccccc2)ccc1OC [SM0034],,1100
,5300,COc1ccc(NC(=O)N(CCO)c2ccccc2)cc1OCCCC(C)C [SM0057],,4050
,2800,COc1ccc(NC(=O)NCc2ccccn2)cc1OCCCC(C)C [SM0045],,2230
,2100,"COc1ccc(NC(=O)N(C)CC(O)c2ccc(O)cc2)cc1OCCCC(C)C (centres unmarked) [SM0071, 1-[2-hydroxy-2-(4-hydroxyphenyl)ethyl]-3-(3-isohexyloxy-4-methoxy-phenyl)-1-methyl-urea]",,8660
,800,COc1ccc(NC(=O)N[C@@H](CO)c2ccccc2)cc1OCC(C)CC(C)C (some centres unmarked) [SM0038],,1480
,113,COc1ccc(NC(=O)NCc2cscn2)cc1OCCCC(C)C [SM0059],,4390
,97,COc1ccc(NC(=O)NCc2ccccc2)cc1OCCCC(C)C [SM0026],,685
,110,COc1ccc(NC(=O)NC(CO)c2ccccn2)cc1OCCCC(C)C (centres unmarked) [SM0040],,1620
